Target: CB1 (CNR1) (Homo sapiens, UniProt P21554)
Experiment: cAMP CNR1 Hunter cell line antagonist assay (CB1 assay)
Type: cell-based
Conditions: antagonist mode, cAMP CNR1 Hunter cells, EC80 agonist; read-out: CB1 assay, Efficacy (IC50)
Description: cAMP CNR1 Hunter cell line (Eurofins DiscoveryX) were expanded from freezer stocks and seeded in a total volume of 20 μL into white walled, 384-well microplates and incubated at 37° C. for the appropriate time prior to testing. For antagonist determination, cell media was aspirated from cells and replaced with 10 μL 1:1 HBSS/Hepes:cAMP XS+Ab reagent. 5 μL of 4× compound was added to the cells and incubated at 37° C. for 30 minutes. 5 μL of 4× EC80 agonist was added to cells and incubated at 37° C. for 30 minutes. After appropriate compound incubation, assay signal was generated through incubation with 20 μL cAMP XS+ED/CL lysis cocktail for one hour followed by incubation with 20 μL cAMP XS+EA reagent for three hours at room temperature. Microplates were read following signal generation with a PerkinElmer Envision™ instrument for chemiluminescent signal detection. Compound activity (IC50) was analyzed using CBIS data analysis suite (ChemInnovation, CA).

CB1 (CNR1), sequence (P21554 whole entry): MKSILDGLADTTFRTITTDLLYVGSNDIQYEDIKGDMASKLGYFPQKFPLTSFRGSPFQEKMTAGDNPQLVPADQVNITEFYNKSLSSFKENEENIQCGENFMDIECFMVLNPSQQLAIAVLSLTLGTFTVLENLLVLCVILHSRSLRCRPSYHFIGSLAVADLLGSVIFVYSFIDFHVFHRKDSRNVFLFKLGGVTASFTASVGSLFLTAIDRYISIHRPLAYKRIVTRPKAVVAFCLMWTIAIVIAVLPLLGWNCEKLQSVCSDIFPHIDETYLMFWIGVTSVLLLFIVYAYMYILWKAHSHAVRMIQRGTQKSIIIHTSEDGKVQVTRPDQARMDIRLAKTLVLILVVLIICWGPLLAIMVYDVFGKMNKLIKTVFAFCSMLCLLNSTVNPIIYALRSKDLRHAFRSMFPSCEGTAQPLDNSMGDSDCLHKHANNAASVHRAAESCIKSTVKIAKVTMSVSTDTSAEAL

Structure (SMILES): CC1Oc2cc(S(=O)(=O)Nc3cccc(F)c3)c(Cl)cc2NC1=O (stereo not shown) [BC19713]
- IC50: 1 to 25 µM

Structure (SMILES): CC1Oc2c(cc(Br)cc2S(=O)(=O)Nc2cccc(F)c2)N(C)C1=O (stereo not shown) [BC19902]
- IC50: ≥ 25 µM

Structure (SMILES): CCC1Oc2cc(S(=O)(=O)Nc3ccc(C)c(F)c3)c(Cl)cc2NC1=O (stereo not shown) [BC19212]
- IC50: 1 to 25 µM

Structure (SMILES): CC1Oc2c(cc(Br)cc2S(=O)(=O)Nc2ccc(F)cc2)N(C)C1=O (stereo not shown) [BC19911]
- IC50: ≥ 25 µM

Structure (SMILES): COc1ccc(NS(=O)(=O)c2cc(Br)cc3c2OC(CC(C)C)C(=O)N3)cc1Cl (stereo not shown) [BC19779]
- IC50: ≥ 25 µM

Structure (SMILES): Cc1ccc(NS(=O)(=O)c2cc3c(cc2Br)NC(=O)CCO3)cc1F [BC19653]
- IC50: ≥ 25 µM

Structure (SMILES): CC1Oc2cc(S(=O)(=O)Nc3ccc(Cl)cc3)c(Cl)cc2NC1=O (stereo not shown) [BC19696]
- IC50: 1 to 25 µM

Structure (SMILES): CCc1cccc(NS(=O)(=O)c2cc(Cl)cc3c2OC(C)C(=O)N3)c1 (stereo not shown) [BC19712]
- IC50: ≥ 25 µM

Structure (SMILES): CC1C(=O)Nc2ccc(S(=O)(=O)N3CCCC3)cc2N1C (stereo not shown) [BC19296]
- IC50: 1 to 25 µM

Structure (SMILES): Cc1ccc(NS(=O)(=O)c2cc(S(C)(=O)=O)cc3c2OCC(=O)N3)cc1Cl [BC19486]
- IC50: ≥ 25 µM

Structure (SMILES): CCNS(=O)(=O)c1cc2c(cc1Cl)NC(=O)C(C)O2 (stereo not shown) [BC19209]
- IC50: ≥ 25 µM

Structure (SMILES): CC(C)(C)C1CCC(NS(=O)(=O)c2cc3c(cc2Br)NC(=O)CO3)CC1 (stereo not shown) [BC19388]
- IC50: ≥ 25 µM

Structure (SMILES): O=C1COc2c(cc(Br)cc2S(=O)(=O)NCCc2ccc(OC(F)(F)F)cc2)N1 [BC19383]
- IC50: ≥ 25 µM

Structure (SMILES): CC1Oc2c(cc(Cl)cc2S(=O)(=O)Nc2ccc(OC(F)(F)F)cc2)NC1=O (stereo not shown) [BC19394]
- IC50: ≥ 25 µM

Structure (SMILES): CCC1Oc2cc(S(=O)(=O)NCc3ccccc3)c(Br)cc2NC1=O (stereo not shown) [BC19287]
- IC50: 1 to 25 µM

Structure (SMILES): CC(C)CC1Oc2c(cc(Br)cc2S(=O)(=O)Nc2cccc(Cl)c2)NC1=O (stereo not shown) [BC19775]
- IC50: ≥ 25 µM

Structure (SMILES): COc1ccc(NS(=O)(=O)c2cc(Br)cc3c2OCC(=O)N3)cc1Cl [BC19171]
- IC50: 1 to 25 µM

Structure (SMILES): CC1Oc2cc(S(=O)(=O)Nc3cccc(F)c3)c(Br)cc2N(C)C1=O (stereo not shown) [BC19903]
- IC50: 1 to 25 µM

Structure (SMILES): CCC1Oc2c(cc(Br)cc2S(=O)(=O)Nc2ccc(C)c(F)c2)N(C)C1=O (stereo not shown) [BC19923]
- IC50: ≥ 25 µM

Structure (SMILES): CC(C)CNS(=O)(=O)c1cc(Br)cc2c1OC(C)C(=O)N2 (stereo not shown) [BC19227]
- IC50: ≥ 25 µM

Structure (SMILES): O=C1COc2c(cc(Br)cc2S(=O)(=O)NC2CCC(O)CC2)N1 (stereo not shown) [BC19381]
- IC50: ≥ 25 µM

Structure (SMILES): Cc1c(Cl)cc2c(c1S(=O)(=O)Nc1ccc(F)c(F)c1)OCC(=O)N2 [BC19489]
- IC50: ≥ 25 µM

Structure (SMILES): CC(C)CC1Oc2cc(S(=O)(=O)Nc3cccc(F)c3)c(Br)cc2NC1=O (stereo not shown) [BC19774]
- IC50: ≥ 25 µM

Structure (SMILES): CCc1cccc(NS(=O)(=O)c2cc3c(cc2Br)N(C)C(=O)C(CC)O3)c1 (stereo not shown) [BC19916]
- IC50: 1 to 25 µM

Structure (SMILES): CCc1cccc(NS(=O)(=O)c2cc(S(C)(=O)=O)cc3c2OCC(=O)N3)c1 [BC19487]
- IC50: ≥ 25 µM

Structure (SMILES): O=C1COc2c(cc(Cl)cc2S(=O)(=O)Nc2ccc(Cl)cc2)N1 [BC19169]
- IC50: < 1 µM

Structure (SMILES): CCC1Oc2c(cc(Cl)cc2S(=O)(=O)Nc2ccc(OC)c(Cl)c2)NC1=O (stereo not shown) [BC19744]
- IC50: ≥ 25 µM

Structure (SMILES): CCc1ccc(NS(=O)(=O)c2cc3c(cc2Br)NC(=O)CCO3)cc1 [BC19690]
- IC50: < 1 µM

Structure (SMILES): CC1Oc2cc(S(=O)(=O)Nc3ccc(F)c(F)c3)c(Br)cc2N(C)C1=O (stereo not shown) [BC19788]
- IC50: 1 to 25 µM

Structure (SMILES): COc1ccc(NS(=O)(=O)c2cc3c(cc2Br)N(C)C(=O)C(C)O3)cc1Cl (stereo not shown) [BC19919]
- IC50: ≥ 25 µM

Structure (SMILES): O=C1CCOc2c(cc(Br)cc2S(=O)(=O)Nc2ccc(Cl)cc2)N1 [BC19685]
- IC50: ≥ 25 µM

Structure (SMILES): COc1ccc(NS(=O)(=O)c2cc(Cl)cc3c2OC(C)C(=O)N3)cc1 (stereo not shown) [BC19707]
- IC50: ≥ 25 µM

Structure (SMILES): CCC1Oc2cc(S(=O)(=O)Nc3cccc(C(C)=O)c3)c(Cl)cc2NC1=O (stereo not shown) [BC19282]
- IC50: 1 to 25 µM

Structure (SMILES): O=C1COc2cc(S(=O)(=O)Nc3ccc(F)cc3F)c(Br)cc2N1 [BC19166]
- IC50: < 1 µM

Structure (SMILES): CC1Oc2c(cc(Br)cc2S(=O)(=O)NCc2ccc(F)cc2F)NC1=O (stereo not shown) [BC19362]
- IC50: ≥ 25 µM

Structure (SMILES): Cc1ccc(NS(=O)(=O)c2cc3c(cc2Br)N(C)C(=O)C(C)O3)cc1Cl (stereo not shown) [BC19797]
- IC50: ≥ 25 µM

Structure (SMILES): CCc1ccc(NS(=O)(=O)c2cc(Br)cc3c2OCCNC3=O)cc1 [BC19604]
- IC50: 1 to 25 µM

Structure (SMILES): CC1Oc2cc(S(=O)(=O)NCc3ccc(OC(F)(F)F)cc3)c(Br)cc2NC1=O (stereo not shown) [BC19357]
- IC50: 1 to 25 µM

Structure (SMILES): O=C1CCOc2c(cc(Br)cc2S(=O)(=O)Nc2cccc(Cl)c2)N1 [BC19650]
- IC50: ≥ 25 µM

Structure (SMILES): O=C1COc2c(cc(Br)cc2S(=O)(=O)NCc2ccc(F)cc2F)N1 [BC19386]
- IC50: ≥ 25 µM

Structure (SMILES): COc1ccc(NS(=O)(=O)c2cc(S(C)(=O)=O)cc3c2OCC(=O)N3)cc1 [BC19485]
- IC50: ≥ 25 µM

Structure (SMILES): O=C1CCOc2cc(S(=O)(=O)Nc3ccc(F)cc3)c(Br)cc2N1 [BC19660]
- IC50: ≥ 25 µM

Structure (SMILES): O=C1CCOc2cc(S(=O)(=O)Nc3cccc(Cl)c3)c(Br)cc2N1 [BC19655]
- IC50: ≥ 25 µM

— patent publication US20240000806A1, “METHODS AND MATERIALS FOR INHIBITING CB1 ACTIVITY” (University of Pittsburgh - Of the Commonwealth System of …, priority 2020, published 2024)
